The record followed here is US20110136842A1, “Substituted Dihydroisoquinolinone and Isoquinolinedione Derivatives as Calcium Channel Blockers” (priority 2008, published 2011).

Structures are written as SMILES.

T1 sequence (Q00975 whole entry): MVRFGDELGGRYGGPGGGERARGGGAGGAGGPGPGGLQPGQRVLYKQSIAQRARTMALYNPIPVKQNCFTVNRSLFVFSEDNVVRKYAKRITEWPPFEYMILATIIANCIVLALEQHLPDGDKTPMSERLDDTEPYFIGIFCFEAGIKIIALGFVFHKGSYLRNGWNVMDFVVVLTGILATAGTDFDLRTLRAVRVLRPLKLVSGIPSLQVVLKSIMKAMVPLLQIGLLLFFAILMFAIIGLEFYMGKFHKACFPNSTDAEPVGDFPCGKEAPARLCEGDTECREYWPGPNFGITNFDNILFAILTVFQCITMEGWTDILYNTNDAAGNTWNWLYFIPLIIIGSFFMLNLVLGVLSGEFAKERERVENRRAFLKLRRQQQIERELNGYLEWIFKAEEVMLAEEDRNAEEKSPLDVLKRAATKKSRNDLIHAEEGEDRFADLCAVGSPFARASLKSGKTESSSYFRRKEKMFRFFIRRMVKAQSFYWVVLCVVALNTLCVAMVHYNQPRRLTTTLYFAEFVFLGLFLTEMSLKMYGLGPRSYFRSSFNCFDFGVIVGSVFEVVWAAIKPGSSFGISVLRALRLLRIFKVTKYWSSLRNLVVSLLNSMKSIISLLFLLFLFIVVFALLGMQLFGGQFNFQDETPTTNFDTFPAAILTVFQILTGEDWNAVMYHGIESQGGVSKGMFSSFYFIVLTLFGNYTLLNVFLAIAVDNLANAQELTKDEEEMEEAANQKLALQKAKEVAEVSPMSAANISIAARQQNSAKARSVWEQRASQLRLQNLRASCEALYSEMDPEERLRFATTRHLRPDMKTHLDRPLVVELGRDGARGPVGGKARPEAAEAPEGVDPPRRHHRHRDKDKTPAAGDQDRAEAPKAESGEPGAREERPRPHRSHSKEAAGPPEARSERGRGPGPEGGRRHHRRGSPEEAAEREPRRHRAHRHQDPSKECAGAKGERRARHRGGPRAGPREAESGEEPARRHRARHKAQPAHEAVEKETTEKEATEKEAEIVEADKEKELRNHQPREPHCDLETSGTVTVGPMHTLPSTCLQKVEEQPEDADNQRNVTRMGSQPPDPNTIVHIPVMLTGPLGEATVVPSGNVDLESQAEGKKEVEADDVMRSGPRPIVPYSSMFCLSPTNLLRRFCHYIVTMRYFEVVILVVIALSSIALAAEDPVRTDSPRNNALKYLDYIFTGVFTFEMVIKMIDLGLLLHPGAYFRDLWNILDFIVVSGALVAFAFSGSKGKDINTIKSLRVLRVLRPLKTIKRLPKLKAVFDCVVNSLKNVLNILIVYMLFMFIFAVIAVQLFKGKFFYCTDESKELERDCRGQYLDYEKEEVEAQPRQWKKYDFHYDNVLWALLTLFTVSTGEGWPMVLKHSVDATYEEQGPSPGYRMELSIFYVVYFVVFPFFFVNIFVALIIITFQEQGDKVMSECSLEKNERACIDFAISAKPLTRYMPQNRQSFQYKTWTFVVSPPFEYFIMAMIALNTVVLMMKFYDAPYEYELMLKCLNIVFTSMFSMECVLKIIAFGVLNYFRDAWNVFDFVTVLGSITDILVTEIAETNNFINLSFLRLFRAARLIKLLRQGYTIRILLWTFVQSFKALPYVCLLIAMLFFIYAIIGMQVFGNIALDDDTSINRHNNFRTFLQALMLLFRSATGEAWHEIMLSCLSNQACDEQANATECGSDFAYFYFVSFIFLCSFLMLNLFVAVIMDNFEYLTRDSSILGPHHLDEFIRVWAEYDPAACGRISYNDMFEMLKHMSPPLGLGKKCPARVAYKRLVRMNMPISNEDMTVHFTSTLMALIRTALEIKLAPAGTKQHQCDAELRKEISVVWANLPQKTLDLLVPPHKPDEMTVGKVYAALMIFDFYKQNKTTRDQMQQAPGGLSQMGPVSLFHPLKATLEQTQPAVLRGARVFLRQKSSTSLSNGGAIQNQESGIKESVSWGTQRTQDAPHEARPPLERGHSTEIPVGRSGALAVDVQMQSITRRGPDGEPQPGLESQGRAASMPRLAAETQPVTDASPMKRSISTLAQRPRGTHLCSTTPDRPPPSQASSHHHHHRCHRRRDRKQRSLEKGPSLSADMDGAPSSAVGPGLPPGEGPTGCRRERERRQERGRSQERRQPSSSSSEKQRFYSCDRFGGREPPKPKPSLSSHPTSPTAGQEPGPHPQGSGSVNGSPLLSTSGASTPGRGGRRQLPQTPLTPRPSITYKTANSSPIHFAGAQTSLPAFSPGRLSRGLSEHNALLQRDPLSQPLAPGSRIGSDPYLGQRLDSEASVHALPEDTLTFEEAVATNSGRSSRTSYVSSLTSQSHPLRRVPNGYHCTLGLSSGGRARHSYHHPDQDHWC

This test has as its target T1, Human Cav2.2 channels (Homo sapiens, UniProt Q00975).
T1 construct: expressed in transfected cells
Description: Fluorescent assay for Cav2.2 channels using potassium depolarization to initiate channel opening. In kind it is cell-based. The following applies: assay of Example 1 in the presence of 30 mM potassium (inactivated channel state). From the text:
Human Cav2.2 channels were stably expressed in HEK293 cells along with alpha2-delta and beta subunits of voltage-gated calcium channels. An inwardly rectifying potassium channel (Kir2.3) was also expressed in these cells to allow more precise control of the cell membrane potential by extracellular potassium concentration. At low bath potassium concentration, the membrane potential is relatively negative, and is depolarized as the bath potassium concentration is raised. In this way, the bath potassium concentration can be used to regulate the voltage-dependent conformations of the channels. Compounds are incubated with cells in the presence of low (4 mM) potassium or elevated (12, 25 or 30 mM) potassium to determine the affinity for compound block of resting (closed) channels at 4 mM potassium or affinity for block of open and inactivated channels at 12, 25 or 30 mM potassium. After the incubation period, Cav2.2 channel opening is triggered by addition of higher concentration of potassium (70 mM final concentration) to further depolarize the cell. The degree of state-dependent block can be estimated from the inhibitory potency of compounds after incubation in different potassium concentrations.
Calcium influx through Cav2.2 channels is determined using a calcium-sensitive fluorescent dye in combination with a fluorescent plate reader. Fluorescent changes were measured with either a VIPR (Aurora Instruments) or FLIPR (Molecular Devices) plate reader.
• 1. Seed cells in Poly-D-Lysine Coated 96- or 384-well plate and keep in a 37° C.-10% CO2 incubator overnight • 2. Remove media, wash cells with 0.2 mL (96-well plate) or 0.05 mL (384-well plate) Dulbecco's Phosphate Buffered Saline (D-PBS) with calcium & magnesium (Invitrogen; 14040) • 3. […] Read cell plate on VIPR instrument, Excitation=480 nm, Emission=535 nm • 9. With VIPR continuously reading, add 0.1 mL (96-well plate) or 0.03 mL (384-well plate) of Depolarization Buffer, which is 2× the final assay concentration, to the cell plate.
With `CC1(Cc2cc(F)cc(F)c2F)C(=O)NC(=O)c2ccc(-c3cccc(OCC(F)(F)F)c3)cc21` (stereo not drawn) [Example 2, 4-methyl-4-(2,3,5-trifluorobenzyl)-6-[3-(2,2,2-trifluoroethoxy)phenyl]isoquinoline-1,3(2H,4H)-dione], the IC50 was determined as 260 nM. The value for `CC1(Cc2cc(F)cc(F)c2F)C(=O)NCc2ccc(-c3cccc(OCC(F)(F)F)c3)cc21` (stereo not drawn) [Example 1, 4-methyl-4-(2,3,5-trifluorobenzyl)-6-[3-(2,2,2-trifiuoroethoxy)phenyl]-1,4-dihydroisoquinolin-3(2H)-one] was 230 nM; that for `Cn1cnc(N2Cc3ccc(-c4cccc(OCC(F)(F)F)c4)cc3C(C)(Cc3cc(F)cc(F)c3F)C2=O)c1` (stereo not drawn) [Example 3, 4-methyl-2-(1-methyl-1H-imidazol-4-yl)-4-(2,3,5-trifluorobenzyl)-6-[3-(2,2,2-trifiuoroethoxy)phenyl]-1,4-dihydroisoquinolin-3(2H)-one] was 20 nM.
